Measured values published in patent US8124788B2, “Spirocyclic cyclohexane compounds with analgesic activity” (Gruenenthal GmbH, priority 2006, dated 2012).
Counter-ions that a name gives are not always drawn.

Legend:
Noradrenaline reuptake = molecular target: T1, Noradrenaline reuptake (Rattus norvegicus, UniProt Q63380); assay: Inhibition of noradrenaline (NA) reuptake in rat brain synaptosomes; format: biochemical; details: synaptosomes from rat hypothalamus
T1 construct: synaptosomes are freshly isolated from areas of the rat brain; from tissue; host or cells: P2 synaptosome fraction from the hypothalamus of male rat brains
T1 sequence (Q63380 1-617): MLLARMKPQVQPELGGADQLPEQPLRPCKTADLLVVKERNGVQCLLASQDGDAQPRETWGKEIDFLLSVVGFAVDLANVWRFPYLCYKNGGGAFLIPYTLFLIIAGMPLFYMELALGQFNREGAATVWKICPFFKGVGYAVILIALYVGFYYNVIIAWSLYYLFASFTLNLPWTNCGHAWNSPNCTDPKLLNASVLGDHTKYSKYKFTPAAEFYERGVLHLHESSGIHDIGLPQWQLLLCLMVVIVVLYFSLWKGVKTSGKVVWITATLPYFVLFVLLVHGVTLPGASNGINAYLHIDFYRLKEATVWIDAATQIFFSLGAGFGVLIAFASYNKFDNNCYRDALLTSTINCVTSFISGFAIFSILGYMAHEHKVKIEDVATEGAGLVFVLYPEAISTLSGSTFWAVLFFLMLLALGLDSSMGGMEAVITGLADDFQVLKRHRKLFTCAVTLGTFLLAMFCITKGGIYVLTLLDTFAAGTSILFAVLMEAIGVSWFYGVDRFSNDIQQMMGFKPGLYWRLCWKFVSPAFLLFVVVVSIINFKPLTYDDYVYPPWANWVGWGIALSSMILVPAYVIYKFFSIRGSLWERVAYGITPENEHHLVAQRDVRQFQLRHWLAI
Description: (§1) In order to be able to carry out these in vitro studies, synaptosomes are freshly isolated from areas of the rat brain. In each case a so-called “P2” fraction prepared in accordance with the instruction of Gray and Whittaker (E. G. Gray and V. P. Whittaker (1962) J. Anat. 76, 79-88) is prepared. For the NA uptake, these vesicular particles are isolated from the hypothalamus of male rat brains.
(§2) A detailed description of the method can be found in the literature (M. Ch. Frink, H.-H. Hennies, W. Englberger, M. Haurand and B. Wilffert (1996) Arzneim.-Forsch./Drug Res. 46 (III), 11, 1029-1036).

[1] = test system: phenylquinone-induced writhing in mice; assay: Phenylquinone writhing; format: in vivo; details: 10 mg/kg intravenously, male NMRI mice
Description: The analgesic activity was investigated in the phenylquinone-induced writhing in mice (modified in accordance with I. C. Hendershot und J. Forsaith (1959) J. Pharmacol. Exp. Ther. 125, 237-240), Male NMRI mice weighing from 25 to 30 g were used for this. Groups of 10 animals per substance dose received 0.3 ml/mouse of a 0.02% strength aqueous solution of phenylquinone (phenylbenzoquinone, Sigma, Deisenhofen; preparation of the solution with the addition of 5% ethanol and storage in a water bath at 45° C.) administered intraperitoneally 10 minutes after intravenous administration of the test substances. The animals were placed individually in observation cages. The number of pain-induced stretching movements (so-called writhing reactions=straightening of the body with stretching of the rear extremities) was counted by means of a push-button counter 5 to 20 minutes after the administration of phenylquinone. Animals which receive only 5% strength Cremophor solution were also run as a control. All the substances were tested in the standard dosage of 10 mg/kg. The percentage inhibition (% inhibition) of the writhing reaction by a substance was calculated according to the following formula: […]

human μ opiate receptor = molecular target: T2, human μ opiate receptor (Homo sapiens, UniProt P35372); assay: Affinity for the human μ opiate receptor ([3H]-naloxone displacement, CHO-K1 membrane preparation, SPA); format: binding; details: for inhibition at 1 µM: read-out: μ opioid receptor [1 μM], % inhibition; for Ki: Cheng-Prusoff conversion from IC50, read-out: μ opioid receptor, Ki
T2 construct: purchased PerkinElmer Life Sciences, Zaventem, Belgium RB-HOM; host or cells: CHO-K1 cells (recombinant expression)
T2 sequence (P35372 whole entry): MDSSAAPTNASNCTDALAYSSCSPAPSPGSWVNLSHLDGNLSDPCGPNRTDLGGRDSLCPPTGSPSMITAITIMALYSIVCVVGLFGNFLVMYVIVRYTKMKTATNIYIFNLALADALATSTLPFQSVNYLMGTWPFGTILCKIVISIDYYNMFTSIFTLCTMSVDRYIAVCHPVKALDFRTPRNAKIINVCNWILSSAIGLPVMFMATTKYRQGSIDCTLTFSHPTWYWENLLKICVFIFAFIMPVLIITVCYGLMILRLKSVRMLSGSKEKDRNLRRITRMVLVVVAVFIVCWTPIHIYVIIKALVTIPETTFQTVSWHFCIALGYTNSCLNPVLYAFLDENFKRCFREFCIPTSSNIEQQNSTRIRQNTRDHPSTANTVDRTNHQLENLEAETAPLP
Procedure, shortened: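 CHO-K1 membranes expressing human μ receptor (15-40 μg protein/250 μl) were incubated 90 min at room temperature with 1 nmol/l [³H]-naloxone and WGA-SPA beads in 50 mmol/l Tris-HCl with 0.06% BSA; 100 μmol/l naloxone defined nonspecific binding. Percent displacement measured at 1 μmol/l; IC50 converted to Ki via Cheng-Prusoff.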

Serotonin reuptake = molecular target: T3, Serotonin reuptake (Rattus norvegicus, UniProt P31652); assay: Inhibition of serotonin (5HT) reuptake in rat brain synaptosomes; format: biochemical
T3 construct: synaptosomes are freshly isolated from areas of the rat brain; from tissue
T3 sequence (P31652 whole entry): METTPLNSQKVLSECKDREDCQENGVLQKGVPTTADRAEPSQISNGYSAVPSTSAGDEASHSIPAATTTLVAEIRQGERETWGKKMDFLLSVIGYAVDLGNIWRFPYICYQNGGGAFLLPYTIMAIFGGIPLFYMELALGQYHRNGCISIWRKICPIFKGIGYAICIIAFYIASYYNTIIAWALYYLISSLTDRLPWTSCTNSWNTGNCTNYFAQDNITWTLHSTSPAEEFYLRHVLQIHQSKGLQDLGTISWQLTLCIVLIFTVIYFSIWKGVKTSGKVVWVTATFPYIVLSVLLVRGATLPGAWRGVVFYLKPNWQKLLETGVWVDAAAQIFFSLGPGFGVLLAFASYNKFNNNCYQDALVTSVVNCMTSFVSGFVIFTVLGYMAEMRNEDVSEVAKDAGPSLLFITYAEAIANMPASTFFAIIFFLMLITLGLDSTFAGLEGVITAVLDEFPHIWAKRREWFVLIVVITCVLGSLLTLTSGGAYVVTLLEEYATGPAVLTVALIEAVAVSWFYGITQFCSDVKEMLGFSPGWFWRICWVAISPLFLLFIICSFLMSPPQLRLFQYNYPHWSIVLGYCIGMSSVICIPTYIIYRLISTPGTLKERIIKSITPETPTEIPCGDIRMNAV
Description: as §1, §2

[2] = 1 μM test substance, displacement of [3H]-naloxone

Row | Compound | inhibition at 10 µM (Noradrenaline reuptake) [%] | % inhibition of the writhing reaction (dosage in mg/kg intravenously) [1] | inhibition at 1 µM (human μ opiate receptor; [2]) [%] | Ki (human μ opiate receptor) [nM] | inhibition at 10 µM (Serotonin reuptake) [%] | melting point [°C] | μ opioid receptor [1 μM], % inhibition (human μ opiate receptor; [2]) [%] | Serotonin reuptake, % inhibition [10 μM] (Serotonin reuptake) [%]
1 | CN(C)C(c1ccccc1)C1CCC2(CC1)OCCc1c2[nH]c2ccccc12 (centres unmarked) [Compound 27, 1,1-[3-(Dimethylamino-(phenyl)-methyl)-pentamethylene]-1,3,4,9-tetrahydropyrano[3,4-b]indole Citrate] | 64 | 53 (10) % | 99 | 26 | 73 | – | – | –
2 | CN(C)C(CCc1ccccc1)C1CCC2(CC1)NCCc1c2[nH]c2ccccc12 (centres unmarked) (as salt: citrate) [Compound 20, 1,1-[3-(Dimethylamino-(phenylethyl)-methyl)-pentamethylene]-3,4-dihydro-1H-2,9-diazafluorene Citrate] | – | – | – | – | – | 130 to 135 | – | –
3 | CN(C)C(c1ccccc1)C1CCC2(CC1)NCCc1c2[nH]c2ccccc12 (centres unmarked) [Compound 19, 1,1-[3-(Dimethylamino-phenylmethyl)-pentamethylene]-3,4-dihydro-1H-2,9-diazafluorene] | 65 | – | 81 | 180 | 91 | 182 to 184 | – | –
4 | CN(C)C(c1ccc(F)cc1)C1CCC2(CC1)NCCc1c2[nH]c2ccccc12 (centres unmarked) [Compound 17, 1,1-[3-(Dimethylamino-(4-fluorophenyl)methyl)-pentamethylene]-3,4-dihydro-1H-2,9-diazafluorene] | – | 52 (10) % | – | – | – | – | 46 | 83
5 | CN(C)C(c1cccc(F)c1)C1CCC2(CC1)NCCc1c2[nH]c2ccccc12 (centres unmarked) [Compound 18, 1,1-[3-(Dimethylamino-(3-fluorophenyl)methyl)-pentamethylene]-3,4-dihydro-1H-2,9-diazafluorene] | 58 | – | 74 | 260 | 64 | 226 to 229 | – | –
6 | Cc1ccc2[nH]c3c(c2c1)CC(C)OC31CCC(C(c2ccccc2)N(C)C)CC1 (centres unmarked) (as salt: citrate) [Compound 42, 3,6-Dimethyl-1,1-[3-(dimethylamino-(phenyl)-methyl)-pentamethylene]-1,3,4,9-tetrahydropyrano[3,4-b]indole Citrate] | – | – | – | – | – | 245 to 250 | – | –
7 | CN(C)C(c1ccc(Cl)cc1)C1CCC2(CC1)OCCc1c2[nH]c2ccccc12 (centres unmarked) [Compound 30, 1,1-[3-(Dimethylamino-(4-chlorophenyl)-methyl)-pentamethylene]-1,3,4,9-tetrahydro-pyrano[3,4-b]indole] | – | 45 (10) % | 84 | 170 | 56 | – | – | –
8 | CN(C)C(CCc1ccccc1)C1CCC2(CC1)NCCc1c2[nH]c2ccccc12 (centres unmarked) [Compound 20, 1,1-[3-(Dimethylamino-(phenylethyl)-methyl)-pentamethylene]-3,4-dihydro-1H-2,9-diazafluorene Citrate] | 91 | 45 (10) % | 97 | 34 | 84 | – | – | –
